Data reported in patent publication US9034866B2 (Genentech, Inc., priority 2012, dated 2015).
Read-outs that look alike come from different tables or passages of the source.

Tests used:
[1] = target: nuclear factor-kappa B (NF-kB)-inducing kinase (NIK) (Homo sapiens (Human), UniProt Q99558); assay: NIK Enzyme Inhibition Assay (Transcreener ADP fluorescence polarization); format: biochemical; conditions: read-out: NIK ADP-FP (Ki uM)
How it was run: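 Baculovirus/insect-cell-expressed NIK (0.2-1 nM) incubated with compounds 1-3.5 h at 10 uM ATP. Buffer: 50 mM HEPES pH 7.2, 10 mM MgCl2, 2 mM DTT, 1% DMSO. ADP detected by Transcreener fluorescence polarization (ADP antibody, AlexaFluor 633 tracer) after EDTA quench.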

[2] = test system: REL-A (p65) nuclear translocation in HeLa cells; assay: REL-A nuclear translocation assay (classical NF-kB signaling), high content imaging; format: cell-based; conditions: Homo sapiens, HeLa, compounds 4.5 hours, then 10 ng/mL TNF-α for 30 minutes, read-out: REL-A HeLa Transloc Assay (IC50)
How it was run: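 HeLa cells in 10% FBS medium preincubated with compounds (0.2% DMSO final) for 4.5 hours, then stimulated with 10 ng/mL TNF-α for 30 minutes. Fixed cells stained with 400 ng/mL anti-REL-A antibody, Alexa488 secondary and DRAQ5; translocation quantified by imaging as nuclear to cytoplasmic signal ratio.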

[3] = test system: p52 (NF-kB2) nuclear translocation in HeLa cells; assay: p52 nuclear translocation assay (non-classical NF-kB signaling), high content imaging; format: cell-based; conditions: Homo sapiens, HeLa, 5 h, 100 ng/mL anti-lymphotoxin beta receptor antibody for 5 hours, read-out: p52 HeLa Transloc Assay (IC50)
How it was run: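 HeLa cells in 10% FBS medium were treated with compound (0.2% DMSO final), then stimulated 5 h with 100 ng/mL anti-lymphotoxin beta receptor antibody. After fixation, cells were immunostained for p52 (2 ug/mL antibody) with DRAQ5 nuclear stain and imaged by high-content imaging. IC50 in µM was derived from the nuclear/cytoplasmic signal ratio.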

[4] = purified NIK 0.2-1 nM, 10 uM ATP, Morrison's quadratic equation

nuclear factor-kappa B (NF-kB)-inducing kinase (NIK), sequence (Q99558 whole entry): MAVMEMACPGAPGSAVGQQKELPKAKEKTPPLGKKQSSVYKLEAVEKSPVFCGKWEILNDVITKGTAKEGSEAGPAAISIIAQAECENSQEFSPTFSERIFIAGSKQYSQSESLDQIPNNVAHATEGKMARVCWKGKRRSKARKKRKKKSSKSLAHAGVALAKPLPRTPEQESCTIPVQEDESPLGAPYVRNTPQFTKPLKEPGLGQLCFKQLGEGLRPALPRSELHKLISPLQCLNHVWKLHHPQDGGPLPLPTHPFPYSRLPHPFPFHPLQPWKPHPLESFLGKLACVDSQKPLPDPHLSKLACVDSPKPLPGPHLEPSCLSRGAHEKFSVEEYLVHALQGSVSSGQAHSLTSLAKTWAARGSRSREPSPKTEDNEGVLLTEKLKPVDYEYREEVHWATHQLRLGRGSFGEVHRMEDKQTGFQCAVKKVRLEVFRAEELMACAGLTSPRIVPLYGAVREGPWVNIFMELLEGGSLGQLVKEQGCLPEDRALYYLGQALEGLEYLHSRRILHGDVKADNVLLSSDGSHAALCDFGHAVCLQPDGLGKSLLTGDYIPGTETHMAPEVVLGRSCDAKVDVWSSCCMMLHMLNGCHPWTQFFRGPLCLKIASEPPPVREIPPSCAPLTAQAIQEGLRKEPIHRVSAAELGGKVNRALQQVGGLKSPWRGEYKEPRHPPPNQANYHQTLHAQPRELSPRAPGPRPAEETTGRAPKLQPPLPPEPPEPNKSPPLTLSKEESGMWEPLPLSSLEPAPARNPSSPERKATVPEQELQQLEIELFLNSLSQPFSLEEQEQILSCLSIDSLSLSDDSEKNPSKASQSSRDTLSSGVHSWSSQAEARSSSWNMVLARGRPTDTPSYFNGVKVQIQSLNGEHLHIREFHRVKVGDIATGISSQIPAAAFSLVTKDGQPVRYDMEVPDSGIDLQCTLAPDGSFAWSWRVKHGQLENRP

| Structure (SMILES) | Ki [1, 4] [µM] | IC50 [2] [nM] | IC50 [3] [nM] | Ki [1] [µM] |
| --- | --- | --- | --- | --- |
| NC(=O)c1cn2c(n1)-c1cc(C#CC3(O)CCc4cccnc43)c(F)cc1OCC2 (racemic) | 0.0009 | > 20000 | 1500 |  |
| Cc1cc([C@](C)(O)C#Cc2ccc3c(c2)-c2nc(C(N)=O)c(-c4cnn(CC(C)(C)O)c4)n2C2CC3C2)no1 | 0.00059 | > 20000 | 934 |  |
| CC(O)(C#Cc1cc2c(cc1F)OCCc1sc(C(N)=O)nc1-2)CO (stereo not drawn) | 0.003 | 20000 | 1100 |  |
| CN1CCC(O)(C#Cc2cc3c(cc2F)OCCc2sc(C(N)=O)nc2-3)C1=O (stereo not drawn) | 0.00053 | > 20000 | 450 |  |
| Cc1cc([C@](C)(O)C#Cc2ccc3c(c2)-c2nc(C(N)=O)c(C(F)(F)F)n2C2CC3C2)no1 |  | 15100 | 511 | 0.0005 |
| CC(C)NC(=O)c1c(C(N)=O)nc2n1CCOc1ccc(C#C[C@]3(O)CCN(C)C3=O)cc1-2 | 0.0012 | > 20000 | 316 |  |
| CNC(=O)c1c(C(N)=O)nc2n1CCOc1cc(F)c(C#CC(C)(O)c3ccccn3)cc1-2 (stereo not drawn) [Example 180, 9-fluoro-10-[3-hydroxy-3-(2-pyridyl)but-1-ynyl]-N3-methyl-5,6-dihydroimi-dazo[1,2-d][1,4]benzoxazepine-2,3-dicarboxamide] | 0.0012 | > 20000 | 870 |  |
| CNC(=O)c1c(C(N)=O)nc2n1C1CC(C1)c1ccc(C#C[C@@](C)(O)c3ccccn3)cc1-2 | 0.0021 | > 20000 | 830 |  |
| CNC(=O)c1c(C(N)=O)nc2n1CCOc1ccc(C#C[C@@](C)(O)c3noc(C)n3)cc1-2 [Example 98, 9-[(R)-3-hydroxy-3-(5-methyl-[1,2,4]ox-adiazol-3-yl)-but-1-ynyl]-4,5-dihydro-6-oxa-1,3a-diaza-benzo[e]azulene-2,3-di-carboxylic acid 2-amide 3-methylamide] | 0.002 | 20000 | 237 |  |
| Cc1nc([C@](C)(O)C#Cc2cc3c(cc2F)C2CC(C2)n2c-3nc(C(N)=O)c2C)no1 | 0.0007 | > 20000 | 1100 |  |
| CNC(=O)c1c(C(N)=O)nc2n1CCOc1cc(F)c(C#C[C@@](C)(O)c3cc(C)on3)cc1-2 [Example 99, 8-fluoro-9-[(R)-3-hydroxy-3-(5-methyl-isoxazol-3-yl)-but-1-ynyl]-4,5-dihydro-6-oxa-1,3a-diaza-benzo[e]azulene-2,3-di-carboxylic acid 2-amide 3-methylamide] |  | 20000 | 62.5 | 0.001 |
| Cc1cc([C@](C)(O)C#Cc2ccc3c(c2)-c2nc(C(N)=O)c(CC4(C)COC4)n2C2CC3C2)no1 (racemic) | 0.0012 | > 20000 | 740 |  |
| Cc1cc([C@](C)(O)C#Cc2cc3c(cc2F)C2CC(C2)c2[nH]c(C(N)=O)nc2-3)no1 | 0.0002 | > 20000 | 477 |  |
| CN1CC[C@@](O)(C#Cc2ccc3c(c2)-c2nc(C(N)=O)cn2C2CC3C2)C1=O |  | 20000 | 1500 | 0.0012 |
| Cc1nc([C@](C)(O)C#Cc2ccc3c(c2)-c2nc(C(N)=O)n(C)c2C2CC3C2)no1 [Example 426] | 0.0018 | > 20000 | 406 |  |
| Cc1cc([C@](C)(O)C#Cc2ccc3c(c2)-c2nc(C(N)=O)c(Cc4ccnn4C)n2C2CC3C2)no1 | 0.0002 | > 20000 | 1700 |  |
| Cn1c(C(N)=O)nc2c1C1CC(C1)c1cc(F)c(C#CC(C)(C)O)cc1-2 | 0.0078 | > 20000 | 286 |  |
| C[C@@](O)(C#Cc1cc2c(cc1F)OCCn1c-2nc(C(N)=O)c1-c1nc(C2CC2)n[nH]1)c1ncccn1 | 0.0047 | > 20000 | 1600 |  |
| C[C@@](O)(C#Cc1ccc2c(c1)-c1nc(C(N)=O)c(-c3nc(C4CC4)n[nH]3)n1CCO2)c1ncccn1 | 0.0072 | > 20000 | 2100 |  |
| Cc1cc([C@](C)(O)C#Cc2ccc3c(c2)-c2nc(C(N)=O)c(CN4CCOCC4)n2CCO3)no1 [Example 103, 9-[(R)-3-hydroxy-3-(5-methyl-isoxazol-3-yl)-but-1-ynyl]-3-morpholin-4-ylmeth-yl-4,5-dihydro-6-oxa-1,3a-diaza-ben-zo[e]azulene-2-carboxylic acid amide] | 0.002 | 20000 | 104 |  |
| CNC(=O)c1c(C(N)=O)nc2n1CCOc1ccc(C#CC(C)(O)c3ccccn3)cc1-2 (stereo not drawn) | 0.0043 | > 20000 | 1400 |  |
| C[C@@](O)(C#Cc1cc2c(cc1F)C1CC(C1)c1[nH]c(C(N)=O)nc1-2)c1ncccn1 | 0.0026 | > 20000 | 1700 |  |

Further compounds by falling Ki [1, 4], results first:

| Ki [1, 4] [µM] | IC50 [2] [nM] | Structure (SMILES) | IC50 [3] [nM] | Ki [1] [µM] |
| --- | --- | --- | --- | --- |
| 0.012 | > 20000 | Cc1c(C(N)=O)nc2n1C1CC(C1)c1cc(F)c(C#C[C@@](C)(O)c3ncccn3)cc1-2 [Example 321, 9-fluoro-10-[(3R)-3-hydroxy-3-pyrim-idin-2-yl-but-1-ynyl]-3-methyl-5,6,7,12-tet-rahydro-5,7-methanobenzo[c]imidazo[1,2-a]azepine-2-carboxamide] | 3000 |  |
| 0.0095 | > 20000 | CC(C)(O)C#Cc1cc2c(cc1F)C1CC(C1)n1c-2nc(C(N)=O)c1C(F)(F)F | 2600 |  |
| 0.0087 | > 20000 | Cc1cc(-c2c(C(N)=O)nc3n2CCOc2cc(F)c(C#C[C@@](C)(O)c4noc(C)n4)cc2-3)[nH]n1 | 2500 |  |
| 0.008 | 20000 | CC(O)(C#Cc1cc2c(cc1F)OCCn1cc(C(N)=O)nc1-2)CF (racemic) [Example 75] | 3800 |  |
| 0.0032 | > 20000 | NC(=O)c1cn2c(n1)-c1cc(C#CC3(O)CCNC3=O)c(F)cc1OCC2 (racemic) | 16000 |  |
| 0.0024 | > 20000 | CC(C)(O)C#Cc1ccc2c(c1)-c1nc(C(N)=O)c(-c3nc(C4CC4)n[nH]3)n1CCO2 (racemic) | 594 |  |
| 0.0024 | > 20000 | Cc1cc([C@](C)(O)C#Cc2cc3c(cc2F)C2CC(C2)n2cc(C(N)=O)nc2-3)on1 | 675 |  |
| 0.0022 | > 20000 | CNC(=O)c1c(C(N)=O)nc2n1C1CC(C1)c1cc(F)c(C#CC(C)(C)O)cc1-2 (racemic) | 358 |  |
| 0.0015 | > 20000 | Cn1nccc1C(O)c1c(C(N)=O)nc2n1CCOc1cc(F)c(C#CC(C)(C)O)cc1-2 (racemic) | 2400 |  |
| 0.0013 | > 20000 | Cc1cc([C@](C)(O)C#Cc2cc3c(cc2F)C2CC(C2)n2c-3nc(C(N)=O)c2C)no1 | 385 |  |
| 0.0013 | > 20000 | CC(C)(O)C#Cc1cc2c(cc1F)C1CC(C1)n1c-2nc(C(N)=O)c1-c1nc(C2CC2)n[nH]1 | 3600 |  |
| 0.00127 | > 20000 | Cc1cc([C@](C)(O)C#Cc2cc3c(cc2F)OCCn2c-3nc(C(N)=O)c2-c2cnn(CC(C)(C)O)c2)no1 (racemic) | 1800 |  |
| 0.0011 | 20000 | Cc1cc([C@](C)(O)C#Cc2ccc3c(c2)-c2nc(C(N)=O)c(C(=O)NC4CCOCC4)n2C2CC3C2)no1 (racemic) | 284 |  |
| 0.00087 | > 20000 | Cc1nc2ccccc2n1Cc1c(C(N)=O)nc2n1C1CC(C1)c1ccc(C#C[C@]3(O)CCN(C)C3=O)cc1-2 | 2900 |  |
| 0.00071 | > 20000 | Cc1cc([C@](C)(O)C#Cc2cc3c(cc2F)C2CC(C2)n2c-3nc(C(N)=O)c2-c2cnn(CC(C)(C)O)c2)no1 (racemic) | 1900 |  |
| 0.0004 | 20000 | CC(C)(O)C#Cc1cc2c(cc1F)OCCn1c-2nc(C(N)=O)c1C(=O)NCC#N | 77 |  |
